Data as given in patent publication US20230295114A1, “AKT3 MODULATORS” (Georgiamune LLC, priority 2020, published 2023).

Key:
Akt3 [1] = molecular target: T1, Akt3 (Homo sapiens, UniProt Q9Y243); assay: Akt3 inhibition activity of selected compounds; assay type: cell-based
T1 construct: endogenous in cells

Akt3 [2] = molecular target: T1, Akt3; assay: Akt3 activation activity of selected compounds; assay type: cell-based

T1 sequence (Q9Y243 whole entry): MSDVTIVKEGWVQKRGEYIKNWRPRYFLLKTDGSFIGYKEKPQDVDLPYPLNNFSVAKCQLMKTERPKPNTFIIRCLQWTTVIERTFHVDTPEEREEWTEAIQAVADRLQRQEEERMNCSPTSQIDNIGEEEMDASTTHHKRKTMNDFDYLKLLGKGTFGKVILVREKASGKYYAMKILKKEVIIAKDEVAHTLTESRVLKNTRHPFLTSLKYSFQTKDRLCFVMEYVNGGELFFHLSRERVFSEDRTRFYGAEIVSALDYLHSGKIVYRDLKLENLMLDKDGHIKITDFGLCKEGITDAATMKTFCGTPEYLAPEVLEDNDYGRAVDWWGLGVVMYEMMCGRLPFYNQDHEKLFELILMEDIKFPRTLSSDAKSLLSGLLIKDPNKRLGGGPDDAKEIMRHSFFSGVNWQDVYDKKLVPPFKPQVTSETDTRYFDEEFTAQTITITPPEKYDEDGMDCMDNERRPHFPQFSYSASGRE

| SMILES | IC50 (Akt3 [1]) [µM] | EC50 (Akt3 [2]) [µM] |
| --- | --- | --- |
| O=C(Nc1cccc(Nc2ccncc2)c1)c1ccc(Nc2ccnc3ccc(F)cc23)cc1 [Compound 2, 4-((6-fluoroquinolin-4-yl)amino)-N-(3-(pyridin-4-ylamino)phenyl)benzamide] | < 1 | – |
| O=C(Nc1cccc(Nc2ccncc2)c1)c1ccc(Nc2ccnc3ccccc23)cc1 [Compound 5, N-(3-(pyridin-4-ylamino)phenyl)-4-(quinolin-4-ylamino)benzamide] | < 2 | – |
| O=C(Nc1cccc(Nc2ccncc2)c1)c1ccc(Nc2ccncc2)cc1 [Compound 10, 4-(pyridin-4-ylamino)-N-(3-(pyridin-4-ylamino)phenyl)benzamide] | < 1 | – |
| Cc1cnc2ccccc2c1Nc1ccc(C(=O)Nc2cccc(Oc3ccncc3)c2)cc1 [Compound 13, 4-((3-methylquinolin-4-yl)amino)-N-(3-(pyridin-4-yloxy)phenyl)benzamide] | < 5 | – |
| Cc1cnc2ccccc2c1Nc1ccc(C(=O)Nc2cccc(Nc3ccncc3)c2)cc1 [Compound 14, 4-((3-methylquinolin-4-yl)amino)-N-(3-(pyridin-4-ylamino)phenyl)benzamide] | < 0.5 | – |
| Cc1cc(Nc2ccc(C(=O)Nc3cccc(Oc4ccncc4)c3)cc2)c2ccccc2n1 [Compound 15, 4-((2-methylquinolin-4-yl)amino)-N-(3-(pyridin-4-yloxy)phenyl)benzamide] | < 2 | – |
| Cc1ccc2c(Nc3ccc(C(=O)Nc4cccc(Oc5ccncc5)c4)cc3)ccnc2c1 [Compound 17, 4-((7-methylquinolin-4-yl)amino)-N-(3-(pyridin-4-yloxy)phenyl)benzamide] | < 5 | – |
| Cc1cc(Nc2cccc(NC(=O)c3ccc(Nc4ccncc4)cc3)c2)ccn1 [Compound 22, N-(3-((2-methylpyridin-4-yl)amino)phenyl)-4-(pyridin-4-ylamino)benzamide] | < 2 | – |
| Cc1cc(Nc2ccc(C(=O)Nc3cccc(Nc4ccnc(C)c4)c3)cc2)ccn1 [Compound 23, 4-((2-methylpyridin-4-yl)amino)-N-(3-((2-methylpyridin-4-yl)amino)phenyl)benzamide] | < 2 | – |
| O=C(Nc1cc(Nc2ccncc2)ccn1)c1ccc(Nc2ccncc2)cc1 [Compound 24, 4-(pyridin-4-ylamino)-N-(4-(pyridin-4-ylamino)pyridin-2-yl)benzamide] | < 5 | – |
| N#Cc1cc(Nc2cccc(NC(=O)c3ccc(Nc4ccncc4)cc3)c2)ccn1 [Compound 30, N-(3-(2-cyanopyridin-4-ylamino)phenyl)-4-(pyridin-4-ylamino)benzamide] | < 5 | – |
| O=C(Nc1cccc(Nc2ccnc(F)c2)c1)c1ccc(Nc2ccncc2)cc1 [Compound 31, N-(3-(2-fluoropyridin-4-ylamino)phenyl)-4-(pyridin-4-ylamino)benzamide] | < 1 | – |
| Cc1cc(Nc2ccc3[nH]c(-c4ccc(Nc5ccnc6ccc(N(C)C)cc56)cc4)nc3c2)ccn1 [Compound 37, N^6,N^6-dimethyl-N^4-(4-(5-((2-methylpyridin-4-yl)amino)-1H-benzo [d]imidazol-2-yl)phenyl)quinoline-4,6-diamine] | – | < 5 |
| Cc1cc(Nc2ccc3[nH]c(-c4ccc(Nc5ccnc6ccc(N7CCOCC7)cc56)cn4)nc3c2)ccn1 [Compound 69, N-(6-(5-((2-methylpyridin-4-yl)amino)-1H-benzo[d]imidazol-2-yl)pyridin-3-yl)-6-morpholinoquinolin-4-amine] | – | < 0.02 |
| Cc1cc(Nc2ccc3[nH]c(-c4ccc(Nc5cc(C)nc6ccc(N7CCOCC7)cc56)cn4)nc3n2)ccn1 [Compound 70, 2-methyl-N-(6-(5-(2-methylpyridin-4-ylamino)-1H-imidazo [4,5-b]pyridin-2-yl)pyridin-3-yl)-6-morpholinoquinolin-4-amine] | – | < 2 |
| Cc1cc(Nc2ccc3[nH]c(-c4ccc(Nc5ccnc6ccc(N7CCOCC7)cc56)nc4)nc3c2)ccn1 [Compound 71, N-(5-(5-((2-methylpyridin-4-yl)amino)-1H-benzo[d]imidazol-2-yl)pyridin-2-yl)-6-morpholinoquinolin-4-amine] | – | < 0.05 |
| Cc1cc(Nc2ccc3[nH]c(-c4ccc(Nc5cc(C)nc6ccc(N7CCOCC7)cc56)nc4)nc3c2)ccn1 [Compound 73, 2-methyl-N-(5-(5-(2-methylpyridin-4-ylamino)-1H-benzo[d]imidazol-2-yl)pyridin-2-yl)-6-morpholinoquinolin-4-amine] | – | < 0.05 |
| Cc1cc(Nc2ccc3[nH]c(-c4ccc(Nc5cc(C)nc6ccc(N7CCOCC7)cc56)cn4)nc3c2)ccn1 [Compound 74, 2-methyl-N-(6-(5-(2-methylpyridin-4-ylamino)-1H-benzo[d]imidazol-2-yl)pyridin-3-yl)-6-morpholinoquinolin-4-amine] | – | < 0.05 |
| Cc1cc(Nc2ccc3[nH]c(-c4ccc(Nc5ccnc6ccc(N7CC(C)OC(C)C7)cc56)cc4)nc3c2)ccn1 (stereo not drawn) [Compound 75, 6-(2,6-dimethylmorpholino)-N-(4-(5-((2-methylpyridin-4-yl)amino)-1H-benzo[d]imidazol-2-yl)phenyl)quinolin-4-amine] | – | < 0.02 |
| Cc1cc(Nc2ccc3[nH]c(-c4ccc(Nc5cc(C)nc6ccc(N7CC(C)OC(C)C7)cc56)cc4)nc3c2)ccn1 (stereo not drawn) [Compound 76, 6-(2,6-dimethylmorpholino)-2-methyl-N-(4-(5-(2-methylpyridin-4-ylamino)-1H-benzo[d]imidazol-2-yl)phenyl)quinolin-4-amine] | – | < 0.05 |
| Cc1cc(Nc2ccc3[nH]c(-c4ccc(Nc5cc(C)nc6ccc(N7CC(C)OC(C)C7)cc56)cn4)nc3c2)ccn1 (stereo not drawn) [Compound 77, 6-(2,6-dimethylmorpholino)-2-methyl-N-(6-(5-(2-methylpyridin-4-ylamino)-1H-benzo[d]imidazol-2-yl)pyridin-3-yl)quinolin-4-amine] | – | < 0.05 |
| Cc1c(Nc2cccc(NC(=O)c3ccc(Nc4ccncc4)cc3)c2)ccnc1N [Compound 92, N-(3-(2-amino-3-methylpyridin-4-ylamino)phenyl)-4-(pyridin-4-ylamino)benzamide] | < 5 | – |
| Nc1cc(Nc2cccc(NC(=O)c3ccc(Nc4ccncc4)cc3)c2)ccn1 [Compound 93, N-(3-(2-aminopyridin-4-ylamino)phenyl)-4-(pyridin-4-ylamino)benzamide] | < 2 | – |
| Cc1cc(Nc2cccc(NC(=O)c3ccc(Nc4ccncc4)cc3)c2)cc(N)n1 [Compound 94, N-(3-(2-amino-6-methylpyridin-4-ylamino)phenyl)-4-(pyridin-4-ylamino)benzamide] | < 2 | – |
